In ChEMBL document CHEMBL6092168, “Identification of novel indolinone derivatives as CTSC inhibitors to treat inflammatory bowel disease by modulating inflammatory factors” (Eur J Med Chem, 2024) one finds Activity and IC50 data, which are given here for 40 compounds.

One may read the pIC50 as the negative decadic logarithm of the IC50, by convention in mol/L.

Molecules are shown by their SMILES. pIC50: −log10 of the molar value. Active and inactive are the calls of the source. The calls are words filed in the database; no cut-off is given here. Bounds are passed on as bounds.

The subject of experiment [1] is RAW264.7. In words: Anti-inflammatory activity in mouse RAW264.7 cells assessed as inhibition of LPS-induced IL-1beta production at 5 uM preincubated for 1 hr followed by LPS addition and measured after 24 hrs by ELISA relative to control. Format: functional.
In experiment [2] the test system is RAW264.7. In words: Anti-inflammatory activity in mouse RAW264.7 cells assessed as inhibition of LPS-induced NO production preincubated for 1 hr followed by LPS addition and measured after 24 hrs by Griess reagent based assay. Format: functional, cell-based. (Griess reagent forms a coloured azo dye with nitrite.)
Experiment [3] deals with Dipeptidyl peptidase 1 (Homo sapiens, UniProt P53634). In words: Inhibition of human recombinant Cathepsin C using Gly-Phe-AFC as substrate preincubated for 3 hrs followed by substrate addition and measured after 1 hr by fluorescence based multifunctional microplate reader analysis.
Sequence of Dipeptidyl peptidase 1 (P53634 25-134 limits assumed): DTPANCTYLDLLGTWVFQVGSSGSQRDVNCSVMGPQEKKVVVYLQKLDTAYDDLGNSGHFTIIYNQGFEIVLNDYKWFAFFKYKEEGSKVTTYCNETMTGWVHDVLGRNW
Sequence of Dipeptidyl peptidase 1 (P53634 231-394 limits assumed): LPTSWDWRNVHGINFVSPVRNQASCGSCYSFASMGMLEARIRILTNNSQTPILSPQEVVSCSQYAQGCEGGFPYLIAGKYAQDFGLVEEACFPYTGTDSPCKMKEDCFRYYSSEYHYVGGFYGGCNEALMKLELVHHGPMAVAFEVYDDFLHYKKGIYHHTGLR
Sequence of Dipeptidyl peptidase 1 (P53634 395-463 limits assumed): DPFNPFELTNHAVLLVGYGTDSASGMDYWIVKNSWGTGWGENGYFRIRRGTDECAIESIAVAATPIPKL
For experiment [4], the system named is RAW264.7. In words: Anti-inflammatory activity in mouse RAW264.7 cells assessed as inhibition of LPS-induced TNF-alpha production at 5 uM preincubated for 1 hr followed by LPS addition and measured after 24 hrs by ELISA relative to control. Format: functional.

With `CNC(=O)c1cccc(NC(=O)c2cccc(-c3ccc(CN4CCOCC4)cc3)c2)c1`, the outcome in experiment [1] (time 25.0 hrs) and in experiment [4] (time 25.0 hrs) was inactive. For the same compound, the pIC50 is less than 4.30 in experiment [2] and less than 6.00 in experiment [3].

Take `O=C(Nc1ccccc1F)c1cccc(-c2ccc(CN3CCOCC3)cc2)c1`: the result in experiment [1] (time 25.0 hrs) and in experiment [4] (time 25.0 hrs) was inactive. For the same compound, the pIC50 is less than 4.30 in experiment [2] and less than 6.00 in experiment [3].

Regarding `O=C(Nc1ccnc2ccccc12)c1cccc(-c2ccc(CN3CCOCC3)cc2)c1`, the figures for the Activity in experiment [1] (time 25 hrs) and in experiment [4] (time 25 hrs) were 75.7% and 70.6%, respectively. The pIC50 in experiment [2] is 5.03; in experiment [3], 6.62.

Turning to `O=C1Nc2c(cccc2-c2ccccc2)/C1=C/c1ccnc2ccccc12`, the result in experiment [1] (time 25.0 hrs) and in experiment [4] (time 25.0 hrs) was inactive. Besides, the pIC50 in experiment [2] is less than 4.30; in experiment [3] it was less than 6.00.

On to `O=C(Nc1ccnc2ccccc12)c1cccc(-c2ccc(CN3CCOCC3)cc2)n1`, for which the Activity in experiment [1] (time 25 hrs) was 70.2%; in experiment [4] (time 25 hrs), 62.2%. The pIC50 in experiment [2] was 5.54; in experiment [3], 6.56.

For the compound `CC(C)c1ccc(NC(=O)c2cccc(-c3ccc(CN4CCOCC4)cc3)c2)cc1`, the result in experiment [1] (time 25.0 hrs) and in experiment [4] (time 25.0 hrs) was inactive. The pIC50 in experiment [2] is less than 4.30; in experiment [3], less than 6.00.

`CCc1cccc(NC(=O)c2cccc(-c3ccc(CN4CCOCC4)cc3)c2)c1`: the result in experiment [1] (time 25.0 hrs) and in experiment [4] (time 25.0 hrs) was inactive. Besides, the pIC50 is less than 4.30 in experiment [2] and less than 6.00 in experiment [3].

As to `CCc1ccc(NC(=O)c2cccc(-c3ccc(CN4CCOCC4)cc3)c2)cc1`, the outcome in experiment [1] (time 25.0 hrs) and in experiment [4] (time 25.0 hrs) was inactive. In addition, the pIC50 was less than 4.30 in experiment [2] and less than 6.00 in experiment [3].

As to `O=C1Nc2c(cccc2-c2ccc3[nH]ncc3c2)/C1=C/c1ccnc2ccccc12`, the figures for the Activity in experiment [1] (time 25 hrs) and in experiment [4] (time 25 hrs) were 62% and 41.3%, respectively. For the same compound, the figures for the pIC50 in experiment [2] and in experiment [3] were 5.01 and 6.72, respectively.

`O=C(Nc1cccc2ccccc12)c1cccc(-c2ccc(CN3CCOCC3)cc2)c1`: the Activity came to 63.2% in experiment [1] (time 25 hrs) and 54.3% in experiment [4] (time 25 hrs). Moreover, the pIC50 in experiment [2] is 5.09; in experiment [3], 6.58.

Take `O=C(Nc1nccc2ccccc12)c1cccc(-c2ccc(CN3CCOCC3)cc2)c1`: the Activity in experiment [1] (time 25 hrs) stood at 70.6%; in experiment [4] (time 25 hrs) it was 67.7%. In addition, the pIC50 in experiment [2] is 5.06; in experiment [3], 6.58.

As for `N#Cc1ccc(-c2cccc3c2NC(=O)/C3=C\c2ccnc3ccccc23)cc1`, the outcome in experiment [1] (time 25.0 hrs) and in experiment [4] (time 25.0 hrs) was inactive. Besides, the pIC50 is less than 4.30 in experiment [2] and less than 6.00 in experiment [3].

As to `O=C1Nc2c(cccc2-c2ccc(N3CCOCC3)cc2)/C1=C/c1ccnc2ccccc12`, the result in experiment [1] (time 25.0 hrs) and in experiment [4] (time 25.0 hrs) was inactive. For the same compound, the values for the pIC50 in experiment [2] and in experiment [3] were 4.95 and 6.27, respectively.

Take `O=C(Nc1cccc(F)c1)c1cccc(-c2ccc(CN3CCOCC3)cc2)c1`: the result in experiment [1] (time 25.0 hrs) and in experiment [4] (time 25.0 hrs) was inactive. For the same compound, the pIC50 in experiment [2] was less than 4.30; in experiment [3], less than 6.00.

Take `CN(C)c1ccc(-c2cccc3c2NC(=O)/C3=C\c2ccnc3ccccc23)cc1`: the result in experiment [1] (time 25.0 hrs) and in experiment [4] (time 25.0 hrs) was inactive. Also, the negative logarithm of the IC50 (pIC50) in experiment [2] was 4.82; in experiment [3], less than 6.00.

On to `O=C(Nc1cncc2ccccc12)c1cccc(-c2ccc(CN3CCOCC3)cc2)c1`, for which the results for the Activity in experiment [1] (time 25 hrs) and in experiment [4] (time 25 hrs) were 65.6% and 62.5%, respectively. Besides, the pIC50 was 5.01 in experiment [2] and 6.60 in experiment [3].

Consider `CC(=O)Nc1ccccc1NC(=O)c1cccc(-c2ccc(CN3CCOCC3)cc2)c1`, for which the result in experiment [1] (time 25.0 hrs) and in experiment [4] (time 25.0 hrs) was inactive. For the same compound, the pIC50 in experiment [2] was less than 4.30; in experiment [3] it was 6.05.

Regarding `O=C(Nc1cccc(C(F)(F)F)c1)c1cccc(-c2ccc(CN3CCOCC3)cc2)c1`, the outcome in experiment [1] (time 25.0 hrs) and in experiment [4] (time 25.0 hrs) was inactive. In addition, the pIC50 is less than 4.30 in experiment [2] and less than 6.00 in experiment [3].

For `Nc1ccccc1NC(=O)c1cccc(-c2ccc(CN3CCOCC3)cc2)c1`, the result in experiment [1] (time 25.0 hrs) and in experiment [4] (time 25.0 hrs) was inactive. Moreover, the negative logarithm of the IC50 (pIC50) in experiment [2] was less than 4.30; in experiment [3] it was less than 6.00.

As for `CC(C)c1cccc(NC(=O)c2cccc(-c3ccc(CN4CCOCC4)cc3)c2)c1`, the result in experiment [1] (time 25.0 hrs) and in experiment [4] (time 25.0 hrs) was inactive. Besides, the pIC50 in experiment [2] is less than 4.30; in experiment [3] it was less than 6.00.

In the case of `O=C(Nc1ccc2ccccc2c1)c1cccc(-c2ccc(CN3CCOCC3)cc2)n1`, the Activity in experiment [1] (time 25 hrs) is on record as 69.3%; in experiment [4] (time 25 hrs) it was 57.4%. The pIC50 is 5.54 in experiment [2] and 6.52 in experiment [3].

As for `CC(C)c1ccc(-c2cccc3c2NC(=O)/C3=C\c2ccnc3ccccc23)cc1`, the outcome in experiment [1] (time 25.0 hrs) and in experiment [4] (time 25.0 hrs) was inactive. Moreover, the results for the pIC50 in experiment [2] and in experiment [3] were less than 4.30 and less than 6.00, respectively.

Turning to `CNC(=O)c1ccc(NC(=O)c2cccc(-c3ccc(CN4CCOCC4)cc3)c2)cc1`, the result in experiment [1] (time 25.0 hrs) and in experiment [4] (time 25.0 hrs) was inactive. For the same compound, the pIC50 is less than 4.30 in experiment [2] and less than 6.00 in experiment [3].

For `Nc1ccc(-c2cccc3c2NC(=O)/C3=C\c2ccnc3ccccc23)cc1`, the result in experiment [1] (time 25.0 hrs) and in experiment [4] (time 25.0 hrs) was inactive. For the same compound, the pIC50 in experiment [2] is 5.09; in experiment [3], 6.31.

Regarding `CC(=O)Nc1cccc(NC(=O)c2cccc(-c3ccc(CN4CCOCC4)cc3)c2)c1`, the outcome in experiment [1] (time 25.0 hrs) and in experiment [4] (time 25.0 hrs) was inactive. Moreover, the pIC50 was less than 4.30 in experiment [2] and less than 6.00 in experiment [3].

As for `Nc1c(C(=O)Nc2ccnc3ccccc23)cccc1-c1ccc(CN2CCOCC2)cc1`, the Activity is on record as 80.9% in experiment [1] (time 25 hrs) and 75.2% in experiment [4] (time 25 hrs). Also, the pIC50 in experiment [2] was 5.19; in experiment [3], 6.84.

Regarding `COc1ccc(NC(=O)c2cccc(-c3ccc(CN4CCOCC4)cc3)c2)cc1`, the result in experiment [1] (time 25.0 hrs) and in experiment [4] (time 25.0 hrs) was inactive. Also, the negative logarithm of the IC50 (pIC50) is less than 4.30 in experiment [2] and 6.14 in experiment [3].

Take `CC(=O)Nc1ccc(-c2cccc3c2NC(=O)/C3=C\c2ccnc3ccccc23)cc1`: the outcome in experiment [1] (time 25.0 hrs) and in experiment [4] (time 25.0 hrs) was inactive. Besides, the figures for the pIC50 in experiment [2] and in experiment [3] were 4.79 and 6.52, respectively.

In the case of `Nc1cccc(NC(=O)c2cccc(-c3ccc(CN4CCOCC4)cc3)c2)c1`, the result in experiment [1] (time 25.0 hrs) and in experiment [4] (time 25.0 hrs) was inactive. Moreover, the pIC50 was less than 4.30 in experiment [2] and less than 6.00 in experiment [3].

As to `O=C(Nc1cncc2ccccc12)c1cccc(-c2ccc(CN3CCOCC3)cc2)n1`, the result in experiment [1] (time 25.0 hrs) and in experiment [4] (time 25.0 hrs) was inactive. Besides, the pIC50 in experiment [2] was less than 4.30; in experiment [3], 6.60.

For `O=C(Nc1ccc(C(F)(F)F)cc1)c1cccc(-c2ccc(CN3CCOCC3)cc2)c1`, the outcome in experiment [1] (time 25.0 hrs) and in experiment [4] (time 25.0 hrs) was inactive. For the same compound, the pIC50 in experiment [2] was less than 4.30; in experiment [3] it was less than 6.00.

For `Nc1c(C(=O)Nc2ccc3ccccc3c2)cccc1-c1ccc(CN2CCOCC2)cc1`, the Activity was 64.2% in experiment [1] (time 25 hrs) and 69.7% in experiment [4] (time 25 hrs). Also, the pIC50 in experiment [2] is 5.21; in experiment [3], 6.51.

Turning to `CNC(=O)c1ccccc1NC(=O)c1cccc(-c2ccc(CN3CCOCC3)cc2)c1`, the outcome in experiment [1] (time 25.0 hrs) and in experiment [4] (time 25.0 hrs) was inactive. Further, the results for the pIC50 in experiment [2] and in experiment [3] were less than 4.30 and less than 6.00, respectively.

`O=C1Nc2c(cccc2-c2ccc(C(=O)NC3CCOCC3)cc2)/C1=C/c1ccnc2ccccc12`: the values for the Activity in experiment [1] (time 25 hrs) and in experiment [4] (time 25 hrs) were 88.1% and 71.9%, respectively. The pIC50 in experiment [2] was 5.17.

As to `O=C(Nc1ccc2ccccc2c1)c1cccc(-c2ccc(CN3CCOCC3)cc2)c1`, the values for the Activity in experiment [1] (time 25 hrs) and in experiment [4] (time 25 hrs) were 68.8% and 63.2%, respectively. In addition, the pIC50 in experiment [2] is 5.12; in experiment [3] it was 6.65.

`Nc1c(C(=O)Nc2nccc3ccccc23)cccc1-c1ccc(CN2CCOCC2)cc1`: the Activity in experiment [1] (time 25 hrs) is on record as 44.2%; in experiment [4] (time 25 hrs), 33.3%. Besides, the pIC50 in experiment [2] was 5.08; in experiment [3] it was 6.49.

On to `CN1CCN(Cc2ccc(-c3cccc4c3NC(=O)/C4=C\c3ccnc4ccccc34)cc2)CC1`, for which the Activity in experiment [1] (time 25 hrs) stood at 80.4%; in experiment [4] (time 25 hrs), 70.4%. For the same compound, the pIC50 was 5.49 in experiment [2] and 6.79 in experiment [3].

For `NC(=O)c1cccc(NC(=O)c2cccc(-c3ccc(CN4CCOCC4)cc3)c2)c1`, the Activity in experiment [1] (time 25 hrs) is listed as 35.6%; in experiment [4] (time 25 hrs), 41.9%. The pIC50 is 4.79 in experiment [2] and 6.44 in experiment [3].

`NCc1ccc(-c2cccc3c2NC(=O)/C3=C\c2ccnc3ccccc23)cc1`: the outcome in experiment [1] (time 25.0 hrs) and in experiment [4] (time 25.0 hrs) was inactive. Besides, in experiment [2], the pIC50 was 4.84.

As for `O=C1Nc2c(cccc2-c2ccc3cc[nH]c3c2)/C1=C/c1ccnc2ccccc12`, the values for the Activity in experiment [1] (time 25 hrs) and in experiment [4] (time 25 hrs) were 60.2% and 39.4%, respectively. Also, in experiment [2], the pIC50 was 5.01.
